The CheMixHub ionic liquid set

Test: xn = mol fraction of the nth substance listed
Settings: 101 kPa

CCCCCC[n+]1ccn(C)c1.F[B-](F)(F)F + CC(C)O
Settings	viscosity [mPa·s]
293.15 K, x2 = 0.9165	3.61
303.15 K, x2 = 0.1493	68.1
303.15 K, x2 = 0.3752	26.9
303.15 K, x2 = 0.5845	11.6
303.15 K, x2 = 0.7067	7.02
303.15 K, x2 = 0.762	5.47
313.15 K, x2 = 0.2992	24.9
313.15 K, x2 = 0.762	3.99
323.15 K, x2 = 0	50.3
323.15 K, x2 = 0.2289	21.4
323.15 K, x2 = 0.2992	18.8
333.15 K, x2 = 0	34
333.15 K, x2 = 0.1493	20.7
333.15 K, x2 = 0.3752	10.33
333.15 K, x2 = 0.762	2.35

COP(=O)([O-])OC.Cn1cc[n+](C)c1 + CC(C)O
Settings	viscosity [mPa·s]
293.15 K, x2 = 0	416
293.15 K, x2 = 0.0999	357
298.15 K, x2 = 0.2032	183
298.15 K, x2 = 0.5002	53.3
298.15 K, x2 = 0.7009	17.98
303.15 K, x2 = 0.5002	43.28
308.15 K, x2 = 0.7009	13.26
308.15 K, x2 = 0.9013	3.819
313.15 K, x2 = 0	119.2
313.15 K, x2 = 0.0999	106.6
313.15 K, x2 = 0.2032	82.2
313.15 K, x2 = 0.301	63.1
318.15 K, x2 = 0.2032	66.1
318.15 K, x2 = 0.5002	25.15
318.15 K, x2 = 0.7009	10.13
323.15 K, x2 = 0.5002	21.5
323.15 K, x2 = 0.9013	2.638
